What was measured:
[1] = Oral exposure of suspension formulations (preformulation studies); assay type: in vivo; settings: increased with 0.5% HPMC, depends on fed/fasted state
[2] = Permeability of Compound I (stated in words); assay type: in vitro ADME
[3] = Biorelevant dissolution testing (solubility/precipitation): SGF (0.1N HCl) then transfer to SIF (FaSSIF); assay type: physicochemical; settings: for Total Drug CmaxGB: SGF (0.1N HCl, pH=1), 0-30 min, equivalent to 2.0 mg/mL of compound I in 50 mL; for Total Drug AUC 35-210 FaSSIF / Total Drug C210: SIF/FaSSIF; for Total Drug AUC 35-210 FaSSIF: 35-210 min; for Total Drug C210: 210 min; for Total Drug CmaxFaSSIF: after transfer at 30 min into 50 mL SIF (2.24 mg/mL FaSSIF in 100 mM PBS)
Protocol: Appropriate amounts (equivalent to 2.0 mg/mL of compound I) of composition of invention were added to 50 mL of 0.1N HCl and stirred. The aliquots of mixture were withdrawn at 10 and 25 minutes, vortexed for 10 seconds and the dissolved amount was measure by analytical HPLC using external reference standards at a wavelength of 240 nm. After 30 minutes, the entire content of sample from SGF incubation was transferred into 50 mL of SIF media with stirring, and the dissolved amount was measured at 35, 50, 75, 120 and 210 minutes.

[4] = Solubility of Compound I (preformulation, stated in words); assay type: physicochemical; settings: b16: in vitro, crystalline form

| Oral exposure [1] | Permeability [2] | Total Drug CmaxGB [3] | Total Drug AUC 35-210 FaSSIF [3] | Total Drug C210 [3] | Total Drug CmaxFaSSIF [3] | Solubility ([4]; listed as Compound I) | Solubility ([4]; listed as compound I) | Increase in AUC over API AUC ([3]; AUC 35-210 FaSSIF relative to BNC210 API) | SMILES |
| --- | --- | --- | --- | --- | --- | --- | --- | --- | --- |
| low oral exposure | moderate permeability | 88 μgA/mL | 4300 min * μgA/mL | 29 μgA/mL | 32 μgA/mL | poorly soluble | poor in vitro solubility |  | CCn1cc(C(=O)N2CCOCC2)c(=O)c2cc(NC3Cc4ccccc4C3)cnc21 [BNC210 API] |
|  |  | 158 μgA/mL | 8700 min * μgA/mL | 60 μgA/mL | 68 μgA/mL |  |  | 2 | CCn1cc(C(=O)N2CCOCC2)c(=O)c2cc(NC3Cc4ccccc4C3)cnc21 [100% BNC210 SD] |
